Experiment: xn = mol fraction of the nth substance listed
Settings: 101 kPa

[N-]=C=S.[NH4+] + CC(=O)[O-].CC[n+]1ccn(C)c1
electrical conductivity (298.15 K, x1 = 0.02): 0.294 S/m
viscosity (298.15 K, x1 = 0.02): 136.6 mPa·s
electrical conductivity (298.15 K, x1 = 0.1002): 0.284 S/m
viscosity (298.15 K, x1 = 0.1002): 160.2 mPa·s
electrical conductivity (298.15 K, x1 = 0.1998): 0.296 S/m
viscosity (298.15 K, x1 = 0.1998): 190.7 mPa·s
electrical conductivity (298.15 K, x1 = 0.2514): 0.314 S/m
viscosity (298.15 K, x1 = 0.2514): 198.6 mPa·s
electrical conductivity (298.15 K, x1 = 0.3413): 0.358 S/m
viscosity (298.15 K, x1 = 0.3413): 196.4 mPa·s
electrical conductivity (303.15 K, x1 = 0.02): 0.382 S/m
viscosity (303.15 K, x1 = 0.02): 100.9 mPa·s
electrical conductivity (303.15 K, x1 = 0.2514): 0.411 S/m
viscosity (303.15 K, x1 = 0.2514): 144.4 mPa·s
electrical conductivity (303.15 K, x1 = 0.3199): 0.458 S/m
viscosity (303.15 K, x1 = 0.3199): 142.8 mPa·s
electrical conductivity (303.15 K, x1 = 0.3413): 0.463 S/m
viscosity (303.15 K, x1 = 0.3413): 143.6 mPa·s
electrical conductivity (308.15 K, x1 = 0.02): 0.483 S/m
viscosity (308.15 K, x1 = 0.02): 76.4 mPa·s
electrical conductivity (308.15 K, x1 = 0.1002): 0.473 S/m
viscosity (308.15 K, x1 = 0.1002): 88.5 mPa·s
electrical conductivity (308.15 K, x1 = 0.3001): 0.569 S/m
viscosity (308.15 K, x1 = 0.3001): 105.9 mPa·s
electrical conductivity (308.15 K, x1 = 0.3199): 0.58 S/m
viscosity (308.15 K, x1 = 0.3199): 106.6 mPa·s
electrical conductivity (313.15 K, x1 = 0.02): 0.601 S/m
viscosity (313.15 K, x1 = 0.02): 59.3 mPa·s
electrical conductivity (313.15 K, x1 = 0.1002): 0.593 S/m
viscosity (313.15 K, x1 = 0.1002): 68.1 mPa·s
electrical conductivity (313.15 K, x1 = 0.1998): 0.617 S/m
viscosity (313.15 K, x1 = 0.1998): 79.3 mPa·s
electrical conductivity (313.15 K, x1 = 0.2514): 0.66 S/m
viscosity (313.15 K, x1 = 0.2514): 81.5 mPa·s
electrical conductivity (313.15 K, x1 = 0.3001): 0.782 S/m
viscosity (313.15 K, x1 = 0.3001): 80.5 mPa·s
electrical conductivity (313.15 K, x1 = 0.3199): 0.797 S/m
viscosity (313.15 K, x1 = 0.3199): 81.1 mPa·s
electrical conductivity (318.15 K, x1 = 0.02): 0.82 S/m
viscosity (318.15 K, x1 = 0.02): 46.9 mPa·s
electrical conductivity (318.15 K, x1 = 0.1002): 0.811 S/m
viscosity (318.15 K, x1 = 0.1002): 53.3 mPa·s
electrical conductivity (318.15 K, x1 = 0.2514): 0.901 S/m
viscosity (318.15 K, x1 = 0.2514): 62.9 mPa·s
electrical conductivity (318.15 K, x1 = 0.3001): 0.968 S/m
viscosity (318.15 K, x1 = 0.3001): 62.3 mPa·s
electrical conductivity (318.15 K, x1 = 0.3199): 0.986 S/m
viscosity (318.15 K, x1 = 0.3199): 62.8 mPa·s
electrical conductivity (318.15 K, x1 = 0.3413): 0.997 S/m
viscosity (318.15 K, x1 = 0.3413): 63.3 mPa·s
electrical conductivity (323.15 K, x1 = 0.02): 0.986 S/m
viscosity (323.15 K, x1 = 0.02): 37.8 mPa·s
electrical conductivity (323.15 K, x1 = 0.1002): 0.987 S/m
viscosity (323.15 K, x1 = 0.1002): 42.5 mPa·s
electrical conductivity (323.15 K, x1 = 0.1998): 1.04 S/m
viscosity (323.15 K, x1 = 0.1998): 48.4 mPa·s
electrical conductivity (323.15 K, x1 = 0.2514): 1.1 S/m
viscosity (323.15 K, x1 = 0.2514): 49.3 mPa·s
electrical conductivity (323.15 K, x1 = 0.3001): 1.18 S/m
viscosity (323.15 K, x1 = 0.3001): 48.9 mPa·s
electrical conductivity (323.15 K, x1 = 0.3199): 1.2 S/m
viscosity (323.15 K, x1 = 0.3199): 49.3 mPa·s
electrical conductivity (323.15 K, x1 = 0.3413): 1.21 S/m
viscosity (323.15 K, x1 = 0.3413): 49.8 mPa·s
viscosity (328.15 K, x1 = 0.02): 30.91 mPa·s
viscosity (328.15 K, x1 = 0.1998): 38.62 mPa·s
viscosity (328.15 K, x1 = 0.2514): 39.15 mPa·s
viscosity (328.15 K, x1 = 0.3001): 38.91 mPa·s
viscosity (328.15 K, x1 = 0.3413): 39.67 mPa·s
viscosity (333.15 K, x1 = 0.2514): 31.49 mPa·s
viscosity (333.15 K, x1 = 0.3199): 31.67 mPa·s
viscosity (333.15 K, x1 = 0.3413): 32 mPa·s

CCOS(=O)(=O)[O-].CC[n+]1ccn(C)c1 + [N-]=C=S.[NH4+]
electrical conductivity (298.15 K, x2 = 0): 0.38 S/m
viscosity (298.15 K, x2 = 0): 95.9 mPa·s
electrical conductivity (303.15 K, x2 = 0): 0.468 S/m
viscosity (303.15 K, x2 = 0): 75.63 mPa·s
electrical conductivity (308.15 K, x2 = 0): 0.566 S/m
viscosity (308.15 K, x2 = 0): 60.66 mPa·s
electrical conductivity (313.15 K, x2 = 0): 0.675 S/m
viscosity (313.15 K, x2 = 0): 49.45 mPa·s
electrical conductivity (318.15 K, x2 = 0): 0.856 S/m
viscosity (318.15 K, x2 = 0): 40.88 mPa·s
electrical conductivity (323.15 K, x2 = 0): 1 S/m
viscosity (323.15 K, x2 = 0): 34.24 mPa·s
viscosity (328.15 K, x2 = 0): 28.99 mPa·s
viscosity (333.15 K, x2 = 0): 24.81 mPa·s

— a compilation of properties of binary mixtures (doi:10.1039/c2cc30374d)
